Reference: ChEMBL document CHEMBL1145631, “Development of a fluorescence polarization based assay for histone deacetylase ligand discovery” (Bioorg Med Chem Lett, 2008)

Columns and labels:
Histone deacetylase = type: protein assay, Homo sapiens
Description: Displacement of fluorescent 5-(3-(3-(4-((4-((7-(hydroxyamino)-7-oxoheptyl)carbamoyl)phenylamino)methyl)-1H-1,2,3-triazol-1-yl)propyl)thioureido)-2-(3-hydroxy-6-oxo-6H-xanthen-9-yl)benzoic acid from HDAC in human HeLa nuclear cell extract by fluorescence polarization assay

[1] = biological target: Histone deacetylase 3/Nuclear receptor corepressor 2 (HDAC3/NCoR2) (Homo sapiens, UniProt O15379); type: protein-complex assay
Description: Displacement of fluorescent 5-(3-(3-(4-((4-((7-(hydroxyamino)-7-oxoheptyl)carbamoyl)phenylamino)methyl)-1H-1,2,3-triazol-1-yl)propyl)thioureido)-2-(3-hydroxy-6-oxo-6H-xanthen-9-yl)benzoic acid from human HDAC3/NcoR2 by fluorescence polarization assay

[2] = biological target: T1, Protein deacetylase HDAC6 (Homo sapiens, UniProt Q9UBN7)
T1 sequence (Q9UBN7 whole entry): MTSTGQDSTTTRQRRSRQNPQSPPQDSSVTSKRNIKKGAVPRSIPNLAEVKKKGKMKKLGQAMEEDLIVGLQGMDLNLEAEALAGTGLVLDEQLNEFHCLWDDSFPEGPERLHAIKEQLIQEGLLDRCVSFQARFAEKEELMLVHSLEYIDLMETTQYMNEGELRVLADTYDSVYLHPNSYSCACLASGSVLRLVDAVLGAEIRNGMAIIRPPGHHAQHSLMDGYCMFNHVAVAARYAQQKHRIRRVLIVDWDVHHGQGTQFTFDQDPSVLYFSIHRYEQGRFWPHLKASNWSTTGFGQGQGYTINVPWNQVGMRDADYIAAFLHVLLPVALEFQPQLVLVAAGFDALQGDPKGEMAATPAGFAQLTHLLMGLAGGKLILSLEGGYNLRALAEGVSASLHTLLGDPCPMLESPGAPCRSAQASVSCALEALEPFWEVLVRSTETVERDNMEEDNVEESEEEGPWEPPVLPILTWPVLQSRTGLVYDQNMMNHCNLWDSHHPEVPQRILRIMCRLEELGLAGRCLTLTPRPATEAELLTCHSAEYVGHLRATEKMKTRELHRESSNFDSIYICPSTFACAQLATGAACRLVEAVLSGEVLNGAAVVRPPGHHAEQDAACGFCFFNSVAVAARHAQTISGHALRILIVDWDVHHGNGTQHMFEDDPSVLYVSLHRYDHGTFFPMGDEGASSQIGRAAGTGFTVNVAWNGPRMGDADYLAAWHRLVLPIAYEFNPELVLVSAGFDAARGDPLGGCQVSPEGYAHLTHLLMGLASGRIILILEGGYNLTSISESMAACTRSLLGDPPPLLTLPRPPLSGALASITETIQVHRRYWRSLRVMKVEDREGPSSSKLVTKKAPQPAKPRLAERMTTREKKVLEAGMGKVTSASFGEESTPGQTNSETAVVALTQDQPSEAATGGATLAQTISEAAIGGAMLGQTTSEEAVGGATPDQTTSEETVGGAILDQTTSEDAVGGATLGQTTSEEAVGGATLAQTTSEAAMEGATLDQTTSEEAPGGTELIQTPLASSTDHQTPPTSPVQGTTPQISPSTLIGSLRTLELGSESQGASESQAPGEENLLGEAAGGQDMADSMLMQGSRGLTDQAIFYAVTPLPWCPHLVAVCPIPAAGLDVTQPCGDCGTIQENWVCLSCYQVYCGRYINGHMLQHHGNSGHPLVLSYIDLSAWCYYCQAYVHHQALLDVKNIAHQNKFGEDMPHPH
Description: Displacement of fluorescent 5-(3-(3-(4-((4-((7-(hydroxyamino)-7-oxoheptyl)carbamoyl)phenylamino)methyl)-1H-1,2,3-triazol-1-yl)propyl)thioureido)-2-(3-hydroxy-6-oxo-6H-xanthen-9-yl)benzoic acid from human HDAC6 by fluorescence polarization assay

Sequence of Histone deacetylase 3/Nuclear receptor corepressor 2 (HDAC3/NCoR2) (O15379 whole entry): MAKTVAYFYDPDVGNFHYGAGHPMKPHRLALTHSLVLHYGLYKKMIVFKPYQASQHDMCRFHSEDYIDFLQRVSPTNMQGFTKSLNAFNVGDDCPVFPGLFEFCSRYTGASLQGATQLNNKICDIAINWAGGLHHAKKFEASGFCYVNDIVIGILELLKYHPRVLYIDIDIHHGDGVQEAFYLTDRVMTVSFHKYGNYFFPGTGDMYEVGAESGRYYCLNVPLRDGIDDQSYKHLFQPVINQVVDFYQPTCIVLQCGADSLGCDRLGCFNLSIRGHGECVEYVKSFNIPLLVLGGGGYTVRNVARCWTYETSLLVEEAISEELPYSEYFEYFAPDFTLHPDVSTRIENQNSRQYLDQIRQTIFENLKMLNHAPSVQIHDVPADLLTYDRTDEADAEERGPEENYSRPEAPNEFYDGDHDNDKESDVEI
Sequence of Histone deacetylase 3/Nuclear receptor corepressor 2 (HDAC3/NCoR2) (Q9Y618 whole entry, further chain): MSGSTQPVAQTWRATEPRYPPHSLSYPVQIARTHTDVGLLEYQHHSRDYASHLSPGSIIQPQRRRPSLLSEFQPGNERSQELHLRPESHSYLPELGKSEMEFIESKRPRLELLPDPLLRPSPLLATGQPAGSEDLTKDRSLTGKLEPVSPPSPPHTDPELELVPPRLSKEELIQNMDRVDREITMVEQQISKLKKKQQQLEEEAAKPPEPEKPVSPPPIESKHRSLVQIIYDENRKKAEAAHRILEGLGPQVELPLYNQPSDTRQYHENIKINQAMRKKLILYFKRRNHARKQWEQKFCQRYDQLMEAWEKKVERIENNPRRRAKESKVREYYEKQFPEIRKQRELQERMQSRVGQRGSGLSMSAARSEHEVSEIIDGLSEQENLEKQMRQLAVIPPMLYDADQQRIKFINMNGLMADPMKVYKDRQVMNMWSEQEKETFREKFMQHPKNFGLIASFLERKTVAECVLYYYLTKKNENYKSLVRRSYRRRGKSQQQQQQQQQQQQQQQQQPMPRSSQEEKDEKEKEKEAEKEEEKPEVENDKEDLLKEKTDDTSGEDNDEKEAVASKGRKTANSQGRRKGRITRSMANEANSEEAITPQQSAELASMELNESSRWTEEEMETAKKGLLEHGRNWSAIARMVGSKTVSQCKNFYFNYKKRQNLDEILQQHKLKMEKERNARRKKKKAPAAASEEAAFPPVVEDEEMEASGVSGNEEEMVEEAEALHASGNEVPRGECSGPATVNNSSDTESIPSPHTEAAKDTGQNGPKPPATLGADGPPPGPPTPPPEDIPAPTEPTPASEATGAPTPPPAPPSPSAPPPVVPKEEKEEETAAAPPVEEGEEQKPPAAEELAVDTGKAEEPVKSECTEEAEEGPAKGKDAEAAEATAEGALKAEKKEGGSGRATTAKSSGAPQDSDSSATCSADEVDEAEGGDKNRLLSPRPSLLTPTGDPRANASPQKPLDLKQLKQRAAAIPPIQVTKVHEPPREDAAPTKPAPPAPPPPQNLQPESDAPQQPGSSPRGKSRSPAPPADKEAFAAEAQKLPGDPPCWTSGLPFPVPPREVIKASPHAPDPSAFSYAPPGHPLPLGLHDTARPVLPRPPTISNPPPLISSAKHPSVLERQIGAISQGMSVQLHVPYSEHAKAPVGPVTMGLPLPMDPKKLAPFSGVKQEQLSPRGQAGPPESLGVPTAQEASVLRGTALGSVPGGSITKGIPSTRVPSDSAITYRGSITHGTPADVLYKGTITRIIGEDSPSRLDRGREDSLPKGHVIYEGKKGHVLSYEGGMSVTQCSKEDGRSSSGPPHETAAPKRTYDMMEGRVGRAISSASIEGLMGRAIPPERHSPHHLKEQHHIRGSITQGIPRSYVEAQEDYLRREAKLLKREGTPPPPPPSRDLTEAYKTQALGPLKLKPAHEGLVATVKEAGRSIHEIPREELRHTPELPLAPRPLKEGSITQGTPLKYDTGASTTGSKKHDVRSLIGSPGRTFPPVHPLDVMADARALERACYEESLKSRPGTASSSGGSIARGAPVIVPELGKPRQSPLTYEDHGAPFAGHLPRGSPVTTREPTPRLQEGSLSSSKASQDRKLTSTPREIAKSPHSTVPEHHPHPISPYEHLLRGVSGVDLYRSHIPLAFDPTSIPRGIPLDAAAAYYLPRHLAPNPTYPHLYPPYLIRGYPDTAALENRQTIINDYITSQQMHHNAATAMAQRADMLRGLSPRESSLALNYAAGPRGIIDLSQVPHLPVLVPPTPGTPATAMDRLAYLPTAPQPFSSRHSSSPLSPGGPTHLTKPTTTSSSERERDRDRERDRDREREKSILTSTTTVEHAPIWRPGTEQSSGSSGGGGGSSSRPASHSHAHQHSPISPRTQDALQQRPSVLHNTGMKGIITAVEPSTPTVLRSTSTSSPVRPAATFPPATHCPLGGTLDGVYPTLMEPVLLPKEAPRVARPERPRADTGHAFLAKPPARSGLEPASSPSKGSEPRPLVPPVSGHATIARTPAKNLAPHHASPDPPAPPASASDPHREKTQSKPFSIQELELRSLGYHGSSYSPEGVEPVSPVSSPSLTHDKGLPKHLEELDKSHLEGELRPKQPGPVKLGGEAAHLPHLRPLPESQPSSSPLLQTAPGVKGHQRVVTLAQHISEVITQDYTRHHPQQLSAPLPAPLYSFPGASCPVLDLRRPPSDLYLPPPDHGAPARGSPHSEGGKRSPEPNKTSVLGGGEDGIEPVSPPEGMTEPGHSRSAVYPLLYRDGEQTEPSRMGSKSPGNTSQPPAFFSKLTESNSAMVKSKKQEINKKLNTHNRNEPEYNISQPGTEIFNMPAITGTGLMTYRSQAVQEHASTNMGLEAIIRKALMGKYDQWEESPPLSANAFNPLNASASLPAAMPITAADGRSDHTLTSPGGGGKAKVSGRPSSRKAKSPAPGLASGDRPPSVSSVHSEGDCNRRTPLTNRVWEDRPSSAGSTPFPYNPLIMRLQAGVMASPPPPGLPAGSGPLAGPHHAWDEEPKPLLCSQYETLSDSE

SMILES | IC50 (Histone deacetylase) [µM] | IC50 [1] [nM] | Ki [1] [nM] | IC50 [2] [nM] | Ki [2] [nM] | Kd [1] [nM] | Kd [2] [nM]
O=C1CCc2c(ccc3ccccc23)O1 [SPLITOMICIN] | > 75 | > 75000 | > 75000 | > 75000 | > 75000 |  | 
O=C(CCCCCCNC(=O)c1ccc(NCc2cn(CCCNC(=S)Nc3ccc(-c4c5ccc(=O)cc-5oc5ccccc45)c(C(=O)O)c3)nn2)cc1)NO |  |  |  |  |  | 2 | 4.6
NCCCn1cc(CNc2ccc(C(=O)NCCCCCCC(=O)NO)cc2)nn1 | 0.058 | 137 | 23.1 | 50.8 | 6.6 |  | 
